Measured values as given in paper doi:10.1101/2021.09.30.462449v1 (biorxiv, 2021).

Tests used:
Test in all cases: biochemical
Conditions in all cases: read-out: % inhibition mean (Z'Lyte)
[1] = target: ALK (Homo sapiens, UniProt Q9UM73)
[2] = target: RPS6KA4 (MSK2) (Homo sapiens, UniProt O75676)
[3] = target: TEK (TIE2) Y897S (Homo sapiens, UniProt Q02763, Y897S)
[4] = target: PDGFRA D842V (Homo sapiens, UniProt P16234, D842V)
[5] = target: STK23 (MSSK1) (Homo sapiens, UniProt Q9UPE1)
[6] = target: MARK3 (Homo sapiens, UniProt P27448)
[7] = target: LYN B (Homo sapiens, UniProt P07948)
[8] = target: ABL1 T315I (Homo sapiens, UniProt P00519, T315I)
[9] = target: NEK1 (Homo sapiens, UniProt Q96PY6)
[10] = target: PAK2 (PAK65) (Homo sapiens, UniProt Q13177)
[11] = target: HIPK2 (Homo sapiens, UniProt Q9H2X6)
[12] = target: MAPK14 (p38 alpha) (Homo sapiens, UniProt Q16539)
[13] = target: ABL1 G250E (Homo sapiens, UniProt P00519, G250E)
[14] = target: AMPK (A1/B2/G2) (Homo sapiens, UniProt Q13131)
[15] = target: HCK (Homo sapiens, UniProt P08631)
[16] = target: AMPK A1/B1/G1 (Homo sapiens, UniProt Q13131)
[17] = target: MAPK14 (p38 alpha) Direct (Homo sapiens, UniProt Q16539)
[18] = target: HIPK3 (YAK1) (Homo sapiens, UniProt Q9H422)
[19] = target: FRAP1 (mTOR) (Homo sapiens, UniProt P42345)
[20] = target: PRKG1 (Homo sapiens, UniProt Q13976)
[21] = target: TNK1 (Homo sapiens, UniProt Q13470)
[22] = target: PIM3 (Homo sapiens, UniProt Q86V86)
[23] = target: ABL1 F317I (Homo sapiens, UniProt P00519, F317I)
[24] = target: PRKACA (PKA) (Homo sapiens, UniProt P17612)
[25] = target: ZAP70 (Homo sapiens, UniProt P43403)
[26] = target: CDK18/cyclin Y (Homo sapiens, UniProt Q07002)
[27] = target: CDK5/p35 (Homo sapiens, UniProt Q00535)
[28] = target: FGFR3 V555M (Homo sapiens, UniProt P22607, V555M)
Sequence of FGFR3 V555M (P22607 whole entry V555M): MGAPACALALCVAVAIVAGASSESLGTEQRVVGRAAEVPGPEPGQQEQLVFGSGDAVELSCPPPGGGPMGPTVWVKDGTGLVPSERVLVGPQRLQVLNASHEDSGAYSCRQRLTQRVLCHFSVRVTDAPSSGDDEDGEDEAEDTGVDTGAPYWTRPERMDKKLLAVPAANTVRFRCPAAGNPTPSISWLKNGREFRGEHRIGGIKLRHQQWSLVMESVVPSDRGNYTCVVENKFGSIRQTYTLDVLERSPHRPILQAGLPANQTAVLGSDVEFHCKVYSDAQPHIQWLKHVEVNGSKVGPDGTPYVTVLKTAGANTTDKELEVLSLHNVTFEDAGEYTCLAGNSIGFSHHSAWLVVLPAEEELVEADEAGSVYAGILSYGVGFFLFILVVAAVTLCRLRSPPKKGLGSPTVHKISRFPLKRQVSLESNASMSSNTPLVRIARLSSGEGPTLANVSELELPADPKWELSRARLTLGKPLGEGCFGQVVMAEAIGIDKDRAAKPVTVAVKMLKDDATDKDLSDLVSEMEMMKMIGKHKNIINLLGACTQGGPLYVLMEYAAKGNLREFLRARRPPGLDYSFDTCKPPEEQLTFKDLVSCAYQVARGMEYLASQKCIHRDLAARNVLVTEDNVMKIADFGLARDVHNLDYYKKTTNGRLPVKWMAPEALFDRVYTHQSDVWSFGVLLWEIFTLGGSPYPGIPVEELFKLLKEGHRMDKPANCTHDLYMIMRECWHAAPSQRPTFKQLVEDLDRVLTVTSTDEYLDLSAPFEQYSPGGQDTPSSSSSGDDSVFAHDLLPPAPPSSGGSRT

Sequence of CDK18/cyclin Y (Q07002 whole entry): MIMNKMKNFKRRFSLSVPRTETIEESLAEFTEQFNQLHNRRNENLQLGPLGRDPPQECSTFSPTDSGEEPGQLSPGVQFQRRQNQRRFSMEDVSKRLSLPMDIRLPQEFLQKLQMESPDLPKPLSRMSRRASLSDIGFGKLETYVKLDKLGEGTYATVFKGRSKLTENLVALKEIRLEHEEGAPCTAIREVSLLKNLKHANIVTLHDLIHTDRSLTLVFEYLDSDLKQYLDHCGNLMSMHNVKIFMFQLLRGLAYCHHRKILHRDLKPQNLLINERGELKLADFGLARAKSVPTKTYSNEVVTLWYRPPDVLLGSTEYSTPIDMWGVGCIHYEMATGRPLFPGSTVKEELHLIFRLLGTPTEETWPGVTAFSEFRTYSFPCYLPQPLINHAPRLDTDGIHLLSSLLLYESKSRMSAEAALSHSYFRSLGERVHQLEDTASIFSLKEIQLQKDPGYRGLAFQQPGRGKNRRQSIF
Sequence of CDK18/cyclin Y (Q8ND76 whole entry partner): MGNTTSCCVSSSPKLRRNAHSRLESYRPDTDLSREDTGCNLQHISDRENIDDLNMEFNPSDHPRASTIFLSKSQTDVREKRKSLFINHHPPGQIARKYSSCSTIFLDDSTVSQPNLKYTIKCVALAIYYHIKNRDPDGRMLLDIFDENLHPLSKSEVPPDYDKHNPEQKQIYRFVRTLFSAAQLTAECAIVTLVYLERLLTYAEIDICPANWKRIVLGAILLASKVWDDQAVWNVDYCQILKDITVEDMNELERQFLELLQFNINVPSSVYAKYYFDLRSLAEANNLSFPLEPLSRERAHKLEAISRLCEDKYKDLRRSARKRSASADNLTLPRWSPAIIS
Sequence of PAK2 (PAK65) (Q13177 whole entry): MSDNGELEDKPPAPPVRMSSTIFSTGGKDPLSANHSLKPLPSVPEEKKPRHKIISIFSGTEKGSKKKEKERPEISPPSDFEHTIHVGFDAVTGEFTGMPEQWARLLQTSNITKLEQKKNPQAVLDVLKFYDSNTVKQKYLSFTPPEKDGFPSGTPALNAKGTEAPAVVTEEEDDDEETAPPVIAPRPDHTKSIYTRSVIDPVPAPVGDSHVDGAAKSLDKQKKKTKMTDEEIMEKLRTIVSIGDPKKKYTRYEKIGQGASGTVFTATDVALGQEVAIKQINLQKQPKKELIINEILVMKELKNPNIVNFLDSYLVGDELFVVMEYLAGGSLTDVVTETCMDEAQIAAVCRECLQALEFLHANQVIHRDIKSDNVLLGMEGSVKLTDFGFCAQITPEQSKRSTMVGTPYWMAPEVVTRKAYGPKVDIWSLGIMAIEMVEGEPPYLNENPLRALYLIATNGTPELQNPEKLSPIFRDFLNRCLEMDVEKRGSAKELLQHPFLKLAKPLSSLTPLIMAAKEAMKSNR
Sequence of MARK3 (P27448 whole entry): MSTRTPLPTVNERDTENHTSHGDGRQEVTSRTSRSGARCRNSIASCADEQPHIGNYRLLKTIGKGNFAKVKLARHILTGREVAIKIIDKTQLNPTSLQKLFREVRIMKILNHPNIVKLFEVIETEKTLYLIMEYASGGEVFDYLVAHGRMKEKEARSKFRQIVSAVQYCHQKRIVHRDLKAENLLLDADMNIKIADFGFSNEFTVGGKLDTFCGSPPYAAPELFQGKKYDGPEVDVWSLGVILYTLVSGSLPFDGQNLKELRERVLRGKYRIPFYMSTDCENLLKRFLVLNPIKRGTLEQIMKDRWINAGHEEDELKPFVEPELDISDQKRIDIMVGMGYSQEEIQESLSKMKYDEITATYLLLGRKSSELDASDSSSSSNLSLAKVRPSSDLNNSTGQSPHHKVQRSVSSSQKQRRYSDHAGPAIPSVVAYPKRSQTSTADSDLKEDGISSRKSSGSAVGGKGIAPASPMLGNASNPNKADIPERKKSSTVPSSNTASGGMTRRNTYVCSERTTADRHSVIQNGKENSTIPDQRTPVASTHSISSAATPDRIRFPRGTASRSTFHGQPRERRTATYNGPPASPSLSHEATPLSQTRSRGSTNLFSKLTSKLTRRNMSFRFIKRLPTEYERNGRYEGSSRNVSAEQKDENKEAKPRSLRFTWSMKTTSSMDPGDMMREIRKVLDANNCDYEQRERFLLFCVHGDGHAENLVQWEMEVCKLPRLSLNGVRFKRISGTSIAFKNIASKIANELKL
Sequence of RPS6KA4 (MSK2) (O75676 whole entry): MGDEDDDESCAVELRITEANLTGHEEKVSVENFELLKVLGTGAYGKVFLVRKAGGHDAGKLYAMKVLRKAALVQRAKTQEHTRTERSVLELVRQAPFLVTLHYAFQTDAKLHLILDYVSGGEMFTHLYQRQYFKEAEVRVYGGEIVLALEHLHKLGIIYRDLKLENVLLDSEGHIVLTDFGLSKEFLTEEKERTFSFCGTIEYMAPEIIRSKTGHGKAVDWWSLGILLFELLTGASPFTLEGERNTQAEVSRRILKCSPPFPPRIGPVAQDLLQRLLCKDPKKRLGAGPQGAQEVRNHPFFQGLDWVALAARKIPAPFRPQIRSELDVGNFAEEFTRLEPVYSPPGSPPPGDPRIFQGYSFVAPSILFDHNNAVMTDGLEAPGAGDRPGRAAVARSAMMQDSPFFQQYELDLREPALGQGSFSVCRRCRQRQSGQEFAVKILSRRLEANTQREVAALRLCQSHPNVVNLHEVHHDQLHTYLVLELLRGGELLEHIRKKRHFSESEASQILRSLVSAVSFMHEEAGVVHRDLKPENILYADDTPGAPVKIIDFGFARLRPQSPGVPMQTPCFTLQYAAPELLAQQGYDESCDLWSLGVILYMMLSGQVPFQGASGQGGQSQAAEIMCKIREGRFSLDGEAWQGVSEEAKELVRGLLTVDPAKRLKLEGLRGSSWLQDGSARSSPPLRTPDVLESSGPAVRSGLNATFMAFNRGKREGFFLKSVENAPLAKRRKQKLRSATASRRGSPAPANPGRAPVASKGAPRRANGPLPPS
Sequence of HIPK3 (YAK1) (Q9H422 whole entry): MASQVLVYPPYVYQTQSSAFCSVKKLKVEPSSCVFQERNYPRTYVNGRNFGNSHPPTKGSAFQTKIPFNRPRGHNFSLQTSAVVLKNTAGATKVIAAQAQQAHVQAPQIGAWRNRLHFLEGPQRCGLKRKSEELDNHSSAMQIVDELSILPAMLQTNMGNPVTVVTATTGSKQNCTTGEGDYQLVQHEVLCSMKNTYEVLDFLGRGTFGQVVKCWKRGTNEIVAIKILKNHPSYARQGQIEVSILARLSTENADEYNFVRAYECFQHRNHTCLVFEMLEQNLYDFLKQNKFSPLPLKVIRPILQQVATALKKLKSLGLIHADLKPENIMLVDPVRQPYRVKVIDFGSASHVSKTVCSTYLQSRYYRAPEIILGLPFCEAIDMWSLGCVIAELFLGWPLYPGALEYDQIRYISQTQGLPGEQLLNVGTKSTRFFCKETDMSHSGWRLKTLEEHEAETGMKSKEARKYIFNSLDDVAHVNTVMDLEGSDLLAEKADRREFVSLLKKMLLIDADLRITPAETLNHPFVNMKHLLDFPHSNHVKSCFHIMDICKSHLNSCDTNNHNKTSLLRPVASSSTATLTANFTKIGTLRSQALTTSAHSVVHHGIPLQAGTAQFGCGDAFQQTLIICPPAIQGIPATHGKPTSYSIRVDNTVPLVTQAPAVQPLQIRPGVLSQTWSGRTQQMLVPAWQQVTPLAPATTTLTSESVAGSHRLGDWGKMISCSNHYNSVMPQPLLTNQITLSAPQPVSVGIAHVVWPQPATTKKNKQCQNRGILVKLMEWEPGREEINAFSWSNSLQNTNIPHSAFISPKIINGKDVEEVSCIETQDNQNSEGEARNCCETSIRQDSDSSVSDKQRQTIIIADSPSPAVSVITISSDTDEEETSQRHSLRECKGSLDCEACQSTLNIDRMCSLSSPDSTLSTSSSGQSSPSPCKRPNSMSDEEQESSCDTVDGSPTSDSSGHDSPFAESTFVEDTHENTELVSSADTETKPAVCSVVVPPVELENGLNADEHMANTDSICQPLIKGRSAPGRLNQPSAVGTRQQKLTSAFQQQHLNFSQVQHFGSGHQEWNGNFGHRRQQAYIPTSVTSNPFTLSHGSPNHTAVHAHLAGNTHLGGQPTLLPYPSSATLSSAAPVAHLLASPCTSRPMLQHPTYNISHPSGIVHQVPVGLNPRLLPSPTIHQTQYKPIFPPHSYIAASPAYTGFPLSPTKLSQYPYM

**Q.** What does the source list for COc1ccc2nc3cc(Cl)ccc3c(Nc3cc(CN4CCCC4)c(O)c(CN4CCCC4)c3)c2n1 [Pyronaridine, 4-[(7-Chloro-2-methoxybenzo[b][1,5]naphthyridin-10-yl)amino]-2,6-bis(1-pyrrolidinylmethyl)phenol phosphate (1:4)]?
**A.** inhibition at 1 µM [1]: -1%; inhibition at 1 µM [2]: -4%; inhibition at 1 µM [3]: 2%; inhibition at 1 µM [4]: -1%; inhibition at 1 µM [5]: -2%; inhibition at 1 µM [6]: 2%; inhibition at 1 µM [7]: -2%; inhibition at 1 µM [8]: 11%; inhibition at 1 µM [9]: -1%; inhibition at 1 µM [10]: -1%; inhibition at 1 µM [11]: -1%; inhibition at 1 µM [12]: 1%; inhibition at 1 µM [13]: 1%; inhibition at 1 µM [14]: -2%; inhibition at 1 µM [15]: 4%; inhibition at 1 µM [16]: 5%; inhibition at 1 µM [17]: 3%; inhibition at 1 µM [18]: -2%; inhibition at 1 µM [19]: 1%; inhibition at 1 µM [20]: -6%; inhibition at 1 µM [21]: -3%; inhibition at 1 µM [22]: 12%; inhibition at 1 µM [23]: 0%; inhibition at 1 µM [24]: 1%; inhibition at 1 µM [25]: 4%; inhibition at 1 µM [26]: 1%; inhibition at 1 µM [27]: 3%; inhibition at 1 µM [28]: -1%
